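All cell lines were grown in 96-well plates and treated with compound for 48 hours. GI50 is the concentration that inhibits growth by half. At the TGI there is no net growth.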
Experiments:
Assay in all cases: NCI tumour cell line growth inhibition, 48 h
[1] = system: KM12 colon
[2] = system: NCI-H23 lung
[3] = system: M14 melanoma
[4] = system: U251 CNS
[5] = system: NCI-H460 lung
[6] = system: A549 NSCLC
[7] = system: SK-OV-3 ovarian
[8] = system: NCI-H522 lung
[9] = system: CAKI-1 renal
[10] = system: NCI-H226 lung

| SMILES | TGI [1] [µM] | TGI [2] [µM] | TGI [3] [µM] | TGI [4] [µM] | TGI [5] [µM] | TGI [6] [µM] | TGI [7] [µM] | TGI [8] [µM] | TGI [9] [µM] | GI50 [8] [µM] | GI50 [9] [µM] | TGI [10] [µM] | GI50 [1] [µM] | GI50 [2] [µM] | GI50 [3] [µM] | GI50 [4] [µM] | GI50 [5] [µM] | GI50 [6] [µM] | GI50 [7] [µM] | GI50 [10] [µM] |
| --- | --- | --- | --- | --- | --- | --- | --- | --- | --- | --- | --- | --- | --- | --- | --- | --- | --- | --- | --- | --- |
| O=C1CC[C@H]2CNC(=O)C[C@H]2C1 | > 100 | > 100 | > 100 | > 100 | > 100 | > 100 | > 100 | > 100 | > 100 | – | – | – | – | – | – | – | – | – | – | – |
| COc1ccc(N=Cc2cc(OC)c(OC)c(OC)c2)cc1 | > 100 | > 100 | – | > 100 | > 100 | > 100 | > 100 | > 100 | > 100 | > 100 | > 100 | – | – | – | – | – | – | – | – | – |
| CCC1CCC2CCCC(C)N12 (stereo not given) | > 100 | > 100 | > 100 | > 100 | – | > 100 | – | > 100 | > 100 | – | – | > 100 | – | – | – | – | – | – | – | – |
| c1ccc(-c2nnc(-c3nn(-c4ccccc4)c4nc5ccccc5nc34)o2)cc1 | > 100 | > 100 | > 100 | > 100 | – | > 100 | > 100 | > 100 | > 100 | – | – | 99.5 | – | – | – | – | – | – | – | – |
| NC1(CCCCCCCCCCC(=O)O)CNCCNCCNCCNC1 | > 100 | > 100 | > 100 | – | 86.4 | > 100 | > 100 | > 100 | > 100 | – | – | – | – | – | – | – | – | – | – | – |
| Clc1cccc(NC=Nc2ccc(-c3nc4ccccc4s3)cc2)c1 | 38.3 | 48.1 | 29.7 | 15.4 | 23.3 | 20.4 | > 50 | 22.3 | > 50 | 11.8 | 17.8 | – | 13.7 | 16.1 | 14.8 | 7.85 | 9.44 | 9.11 | 31.7 | – |
| Cc1cccc2c3ccc4c(c3n(C)c12)C(=O)C=CC4=O | > 100 | 57.8 | > 100 | – | – | > 100 | > 100 | > 100 | > 100 | – | – | > 100 | – | – | – | – | – | – | – | – |
| COc1ccc(CN2CCCC(C(=O)c3ccc(C(F)(F)F)cc3)C2)c(O)c1 (stereo not given) | 86 | > 100 | – | > 100 | > 100 | > 100 | > 100 | 42.2 | > 100 | 19.3 | 22.1 | > 100 | 30.5 | 28.5 | – | 26 | 26.7 | 36.4 | 36.1 | 35.5 |
| O=C1NC(=O)C2C(=O)NC(=O)C1C2(c1ccccc1)c1ccc(Cl)cc1 (stereo not given) | > 100 | > 100 | > 100 | – | > 100 | > 100 | > 100 | > 100 | > 100 | – | – | > 100 | – | – | – | – | – | – | – | – |
| O=C1c2ccccc2-c2c1c1cc3c(cc1c(=O)n2CCCCl)OCO3 | > 100 | 87.3 | > 100 | 67.4 | > 100 | > 100 | > 100 | > 100 | 82.4 | 16.8 | 20.4 | – | 24.1 | 21.5 | 65.3 | 22.8 | 97.1 | 36.3 | > 100 | – |

— PubChem BioAssay (NCI)
